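Test compounds were applied to cells in 96-well plates for 48 hours at 5 doses. The concentration for 50% growth inhibition is given as GI50.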 Active and inactive are the calls of the source. No stated cut-off is given here; in the data, active = GI50 up to about 1.1 µM and inactive = higher.
How the values were obtained:
Test in all cases: DTP human tumour cell line panel, 48 h
SNB-75 = test system: SNB-75
HCT-116 = test system: HCT-116
NCI-H23 = test system: NCI-H23
IGROV-1 = test system: IGROV-1
SF-539 = test system: SF-539
CCRF-CEM = test system: CCRF-CEM
K562 = test system: K562
A498 = test system: A498
COLO 205 = test system: COLO 205
SF-295 = test system: SF-295
HL-60 = test system: HL-60
OVCAR-5 = test system: OVCAR-5
SK-MEL-28 = test system: SK-MEL-28
RXF 393 = test system: RXF 393
HOP-62 = test system: HOP-62
U-251 = test system: U-251
Malme-3M = test system: Malme-3M
ACHN = test system: ACHN
M14 = test system: M14
SR = test system: SR

Row | Structure (SMILES) | GI50 (SNB-75) | GI50 (HCT-116) | GI50 (NCI-H23) | GI50 (IGROV-1) | GI50 (SF-539) | GI50 (CCRF-CEM) | GI50 (K562) | GI50 (A498) | GI50 (COLO 205) | GI50 (SF-295) | GI50 (HL-60) | GI50 (OVCAR-5) | GI50 (SK-MEL-28) | GI50 (RXF 393) | GI50 (HOP-62) | GI50 (U-251) | GI50 (Malme-3M) | GI50 (ACHN) | GI50 (M14) | GI50 (SR)
1 | CC1=C2C(O)C(C(C)C(=O)NC(C)C)CCC2(C)C=CC1=O (centres undefined) | > 100 µM (inactive) | > 100 µM (inactive) | > 100 µM (inactive) | > 100 µM (inactive) | > 100 µM (inactive) | > 100 µM (inactive) | > 100 µM (inactive) | > 100 µM (inactive) | > 100 µM (inactive) | > 100 µM (inactive) | > 100 µM (inactive) | > 100 µM (inactive) | > 100 µM (inactive) | > 100 µM (inactive) | > 100 µM (inactive) | > 100 µM (inactive) |  |  |  | 
2 | COc1ccc(/C(Cl)=C(\C=O)c2ccc(F)cc2)cc1OC | 3.22 µM (inactive) | 15.4 µM (inactive) | 16.6 µM (inactive) | 31.9 µM (inactive) | 23 µM (inactive) | 10.7 µM (inactive) | 16.8 µM (inactive) | 20 µM (inactive) | 19.6 µM (inactive) | 21.6 µM (inactive) | 7.16 µM (inactive) |  | 24 µM (inactive) |  | 15.2 µM (inactive) | 15.6 µM (inactive) | 30.5 µM (inactive) | 16.8 µM (inactive) | 17.6 µM (inactive) | 
3 | Cc1cc(C)nc(NS(=O)(=O)c2ccc(NNC(=O)c3cccc4c(=O)c5ccccc5[nH]c34)cc2)n1 | 19.5 µM (inactive) | 48.9 µM (inactive) | 63 µM (inactive) | 36.7 µM (inactive) | > 100 µM (inactive) | 35.4 µM (inactive) | 41 µM (inactive) |  | > 100 µM (inactive) | 80.5 µM (inactive) | 41.2 µM (inactive) | 21.5 µM (inactive) | 29.2 µM (inactive) | 36 µM (inactive) | 71.8 µM (inactive) | 25.2 µM (inactive) | 49.9 µM (inactive) | 32.4 µM (inactive) | > 100 µM (inactive) | 37.5 µM (inactive)
4 | O=C(NC1C=Nc2ccc([N+](=O)[O-])cc2NC1=O)c1cc(Cl)cc([N+](=O)[O-])c1 (centres undefined) | > 100 µM (inactive) | > 100 µM (inactive) | > 100 µM (inactive) | > 100 µM (inactive) | > 100 µM (inactive) | 20.8 µM (inactive) | 38.8 µM (inactive) | > 100 µM (inactive) | 59.3 µM (inactive) | > 100 µM (inactive) | 12.9 µM (inactive) | > 100 µM (inactive) | > 100 µM (inactive) | > 100 µM (inactive) | > 100 µM (inactive) | > 100 µM (inactive) |  | > 100 µM (inactive) | > 100 µM (inactive) | 72.3 µM (inactive)
5 | Cc1cn(C2CC(N)C(C(=O)NCC(=O)O)O2)c(=O)[nH]c1=O (centres undefined) | > 100 µM (inactive) | > 100 µM (inactive) | > 100 µM (inactive) | > 100 µM (inactive) |  | > 100 µM (inactive) | 95.3 µM (inactive) | 50.6 µM (inactive) | > 100 µM (inactive) |  | > 100 µM (inactive) | > 100 µM (inactive) | > 100 µM (inactive) | > 100 µM (inactive) | > 100 µM (inactive) | > 100 µM (inactive) | > 100 µM (inactive) | > 100 µM (inactive) | > 100 µM (inactive) | > 100 µM (inactive)
6 | COC1OC2COC(c3ccccc3)OC2C(OC(=S)c2ccccc2)C1O (centres undefined) |  |  | 82.4 µM (inactive) | > 100 µM (inactive) | 13.2 µM (inactive) | 14.3 µM (inactive) | > 100 µM (inactive) | > 100 µM (inactive) | > 100 µM (inactive) | 28.8 µM (inactive) |  | > 100 µM (inactive) | 0.662 µM (active) | 12 µM (inactive) | 12 µM (inactive) | 11.5 µM (inactive) | 4.45 µM (inactive) | 75.5 µM (inactive) | > 100 µM (inactive) | > 100 µM (inactive)
7 | N#CN=C(NCCO)NCCO | > 100 µM (inactive) | > 100 µM (inactive) |  | > 100 µM (inactive) | > 100 µM (inactive) | > 100 µM (inactive) |  | 92.7 µM (inactive) | > 100 µM (inactive) | > 100 µM (inactive) | > 100 µM (inactive) | > 100 µM (inactive) | > 100 µM (inactive) |  | > 100 µM (inactive) | > 100 µM (inactive) | > 100 µM (inactive) | > 100 µM (inactive) | > 100 µM (inactive) | > 100 µM (inactive)
8 | C=CCc1c(O)c2c(c3oc(=O)cc(C)c13)CC(C)O2 (centres undefined) | > 100 µM (inactive) | > 100 µM (inactive) | > 100 µM (inactive) | 20.2 µM (inactive) | > 100 µM (inactive) | 50.4 µM (inactive) | > 100 µM (inactive) |  |  | > 100 µM (inactive) | 86.7 µM (inactive) | > 100 µM (inactive) |  | 67.8 µM (inactive) | > 100 µM (inactive) | > 100 µM (inactive) | > 100 µM (inactive) | > 100 µM (inactive) | > 100 µM (inactive) | > 100 µM (inactive)
9 | N#Cc1c(OCCF)c2ccccc2n2c1nc1ccccc12 | 70.6 µM (inactive) | 11.2 µM (inactive) | 69 µM (inactive) | 23.8 µM (inactive) | 16.9 µM (inactive) | 95.7 µM (inactive) | > 100 µM (inactive) | 1.94 µM (inactive) | > 100 µM (inactive) | 23.9 µM (inactive) | 97.7 µM (inactive) | > 100 µM (inactive) | > 100 µM (inactive) | 17.3 µM (inactive) | 29.9 µM (inactive) | 37.6 µM (inactive) |  | 23.3 µM (inactive) | > 100 µM (inactive) | > 100 µM (inactive)
10 | COC(=O)C(C(=O)C(=O)Nc1nnc(S)[nH]1)c1csc(-n2nc(-c3ccccc3)cc2-c2ccccc2)n1 (centres undefined) | 3.75 µM (inactive) | > 100 µM (inactive) | > 100 µM (inactive) | > 100 µM (inactive) |  | > 100 µM (inactive) | > 100 µM (inactive) | > 100 µM (inactive) | > 100 µM (inactive) |  | > 100 µM (inactive) | > 100 µM (inactive) |  | > 100 µM (inactive) | > 100 µM (inactive) | > 100 µM (inactive) | > 100 µM (inactive) | > 100 µM (inactive) | > 100 µM (inactive) | > 100 µM (inactive)
11 | COc1ccc(NC(=O)CC(=O)N2N=C(N3c4ccccc4Sc4ccccc43)CC2c2ccccc2)cc1 (centres undefined) | 47.6 µM (inactive) | > 100 µM (inactive) | > 100 µM (inactive) | > 100 µM (inactive) | > 100 µM (inactive) | > 100 µM (inactive) | > 100 µM (inactive) |  | > 100 µM (inactive) | > 100 µM (inactive) | > 100 µM (inactive) | > 100 µM (inactive) | > 100 µM (inactive) | > 100 µM (inactive) | > 100 µM (inactive) | > 100 µM (inactive) |  | > 100 µM (inactive) | > 100 µM (inactive) | > 100 µM (inactive)

Reference: ChEMBL document CHEMBL1201862, “PubChem BioAssay data set” (2004)
